Read-outs that look alike come from different tables or passages of the source.
Assays:
mouse HDAC6 = target: T1, mouse HDAC6 (Mus musculus, UniProt Q9Z2V5); assay: In vitro HDAC inhibition activity, [3H]-acetylated histone substrate, HDAC6; format: biochemical; settings: Table 3
T1 construct: HA; made in house; host or cells: 293T cells (transient transfection, anti-HA immunoprecipitation, HA peptide elution)
T1 sequence (Q9Z2V5 1-1149): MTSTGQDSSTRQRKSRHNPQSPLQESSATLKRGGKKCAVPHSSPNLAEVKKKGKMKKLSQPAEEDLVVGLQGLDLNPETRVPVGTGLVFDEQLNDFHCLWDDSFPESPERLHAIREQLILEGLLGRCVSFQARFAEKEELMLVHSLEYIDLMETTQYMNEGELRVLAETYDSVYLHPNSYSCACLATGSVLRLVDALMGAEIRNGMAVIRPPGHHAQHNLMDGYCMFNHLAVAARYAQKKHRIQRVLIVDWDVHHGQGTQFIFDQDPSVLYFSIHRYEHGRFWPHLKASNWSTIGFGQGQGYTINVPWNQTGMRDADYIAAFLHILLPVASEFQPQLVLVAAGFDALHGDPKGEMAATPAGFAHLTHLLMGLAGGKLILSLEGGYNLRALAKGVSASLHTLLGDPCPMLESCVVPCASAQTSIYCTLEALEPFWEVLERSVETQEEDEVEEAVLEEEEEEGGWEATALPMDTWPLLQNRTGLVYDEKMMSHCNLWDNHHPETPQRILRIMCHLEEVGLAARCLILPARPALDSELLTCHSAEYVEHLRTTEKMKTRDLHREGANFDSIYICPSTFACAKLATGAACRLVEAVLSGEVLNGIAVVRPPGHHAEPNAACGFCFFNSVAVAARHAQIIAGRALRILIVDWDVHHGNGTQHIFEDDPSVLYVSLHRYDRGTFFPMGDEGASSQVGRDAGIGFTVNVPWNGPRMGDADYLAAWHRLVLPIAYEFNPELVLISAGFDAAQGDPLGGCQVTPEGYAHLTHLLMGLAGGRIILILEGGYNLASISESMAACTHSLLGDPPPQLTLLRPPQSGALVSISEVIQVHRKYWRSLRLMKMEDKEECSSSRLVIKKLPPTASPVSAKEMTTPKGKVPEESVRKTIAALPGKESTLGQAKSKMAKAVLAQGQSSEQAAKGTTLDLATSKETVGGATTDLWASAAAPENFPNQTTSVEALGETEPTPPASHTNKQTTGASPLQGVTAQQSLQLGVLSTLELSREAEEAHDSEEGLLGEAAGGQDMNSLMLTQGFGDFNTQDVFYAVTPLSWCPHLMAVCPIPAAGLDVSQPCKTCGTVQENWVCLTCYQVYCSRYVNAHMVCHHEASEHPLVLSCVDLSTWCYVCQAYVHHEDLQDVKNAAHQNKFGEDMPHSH

in vitro = settings: human, Cancer-Cell-Selective Cytotoxicity, LD50 for normal cells/LD50 for cancer cells (TIG-3/HeLa)
Experimental: Human normal lung cells (TIG-3) and human uterine cancer cells (HeLa) were used to test SCOP cytotoxicity. These TIG-3 and HeLa cells were cultured in a DMEM medium comprising 10% FBS at 37° C. in the presence of 5% carbon dioxide in a steam-saturated incubator. The TIG-3 and HeLa cells were plated in 100 μl/well of the above-described medium on a 96-well microtiter plate, at a density of 30,000 cells/well and 10,000 cells/well respectively. This was then cultured for 18 hours. Test compound solution diluted with medium was added to each well and culture was continued for another 48 hours.
30 μl of supernatant from each well was transferred to another 96-well microtiter plate (A), and the remaining supernatant was discarded. 100 μl of 0.5% Triton-X/PBS was added to each well to lyse the cells, and 30 μl was then transferred to each respective well of another 96-well microtiter plate (B). 30 μl of LDH-Cytotoxic Test (Wako) substrate solution was added to each well of these 96-well microtiter plates A and B, causing a color reaction. Once the color reaction was sufficiently progressed, it was stopped by adding 60 μl of a quenching solution. Color intensity was measured at OD560 nm using a microplate reader (Softmax). [A/(A+B)] was calculated as the free-LDH ratio. […] The higher the activity value for cancer-cell-selective cell damage (LD50 for normal cells/LD50 for cancer cells), the more that cancer-cell-selective apoptosis was induced.

[1] = Cytotoxicity test (free-LDH ratio), TIG-3; format: cell-based; settings: human, TIG-3 human normal lung cells, 48 hours, free-LDH ratio 50%, read-out: LD50 (nM) TIG-3
Experimental: This was then cultured for 18 hours.

CC[C@H](C)[C@@H]1NC(=O)[C@@H](Cc2ccc(OC)cc2)NC(=O)[C@H](CCCCCSSc2ccncc2)NC(=O)[C@H]2CCCN2C1=O [SCOP 402, cyclo(-L-Am7(S4Py)-D-Tyr(Me)-L-Ile-D-Pro-)]
IC50 (mouse HDAC6; hybrid with DTT (/DTT)): 2010 nM
IC50 (mouse HDAC6; hybrid, without DTT): 1610 nM
selectivity ratio at 48 h (in vitro; with DTT (/DTT)): 27.8
selectivity ratio at 48 h (in vitro; without DTT): 11.4
CC50 at 48 h ([1]; with DTT (/DTT)): 4460 nM
CC50 at 48 h ([1]; without DTT): 13300 nM
